Results reported in patent US20160120863A1, “SLC2A TRANSPORTER INHIBITORS” (IOMET PHARMA LTD., priority 2013, published 2016).

Assays:
Assay type in all cases: cell-based
[1] = biological target: T1, human GLUT3 (Homo sapiens, UniProt P11169); assay: [3H]-deoxy-D-glucose uptake assay, GLUT3; settings: [3H]-deoxy-D-glucose uptake in HEK293 cells stably expressing human GLUT3
T1 construct: expressed in transfected cells
T1 sequence (P11169 1-496): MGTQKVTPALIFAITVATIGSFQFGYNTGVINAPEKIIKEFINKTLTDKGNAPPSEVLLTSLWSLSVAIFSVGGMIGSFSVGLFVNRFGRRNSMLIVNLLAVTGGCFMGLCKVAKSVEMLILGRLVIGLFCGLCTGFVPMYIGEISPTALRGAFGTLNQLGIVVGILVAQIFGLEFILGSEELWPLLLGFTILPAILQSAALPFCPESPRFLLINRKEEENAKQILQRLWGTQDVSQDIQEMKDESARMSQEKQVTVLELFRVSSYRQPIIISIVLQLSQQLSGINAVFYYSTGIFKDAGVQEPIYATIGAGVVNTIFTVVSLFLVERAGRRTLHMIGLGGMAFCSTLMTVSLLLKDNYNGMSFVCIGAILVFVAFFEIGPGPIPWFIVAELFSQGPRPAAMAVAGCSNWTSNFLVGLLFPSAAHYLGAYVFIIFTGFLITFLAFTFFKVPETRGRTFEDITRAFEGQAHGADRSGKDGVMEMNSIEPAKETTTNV
Experimental: (§1) HEK293 cells were engineered to stably express either human GLUT1, GLUT2, GLUt3 or GLUT4 by transfection with the pReceiver-Lv105 plasmid, containing either hGLUT1, hGLUT2, hGLUT3, or hGLUT4 gene constructs with lipofectamine 2000, hGLUT1- hGLUT2- hGLUT3- or hGLUT4-overexpressing polyclonal populations were isolated under purinomycin selective pressure (1 μg/ml) and maintained in Dulbecco's modified Eagle's medium supplemented with 1 μg/ml purinomycin+10% foetal bovine serum (FBS).
(§2) 60,000 cells per well were seeded overnight into poly-D-lysine coasted 96-well plates. Following media removal, cells were washed twice in warm glucose-free uptake buffer (25 mM HEPES/KOH pH 7.4, 125 mM NaCl, 4.8 mM KCl, 1.2 mM MgSO4, 1.2 mM CaCl2, 1.2 mM KH2PO4). 90 μl of test compounds were added in glucose-free uptake buffer and cells were incubated at 37° C. for 30 min. 10 μl of [3H]-deoxy-D-glucose (0.25 μCi, 125 μM final assay concentration) was then added per well in glucose-free uptake buffer and uptake was allowed to proceed at 37° C. for 30 min.
(§3) Cells were then washed twice with ice-cold PBS and 100 μl of Microscint-20 was added per well. Glucose uptake was quantified with a scintillation counter. The half maximal inhibitory concentration (IC50) (a measure of the effectiveness of the test compound in inhibiting glucose uptake) was determined.

[2] = biological target: T2, human GLUT1 (Homo sapiens, UniProt P11166); assay: [3H]-deoxy-D-glucose uptake assay, GLUT1; settings: [3H]-deoxy-D-glucose uptake in HEK293 cells stably expressing human GLUT1
T2 construct: expressed in transfected cells
T2 sequence (P11166 1-492): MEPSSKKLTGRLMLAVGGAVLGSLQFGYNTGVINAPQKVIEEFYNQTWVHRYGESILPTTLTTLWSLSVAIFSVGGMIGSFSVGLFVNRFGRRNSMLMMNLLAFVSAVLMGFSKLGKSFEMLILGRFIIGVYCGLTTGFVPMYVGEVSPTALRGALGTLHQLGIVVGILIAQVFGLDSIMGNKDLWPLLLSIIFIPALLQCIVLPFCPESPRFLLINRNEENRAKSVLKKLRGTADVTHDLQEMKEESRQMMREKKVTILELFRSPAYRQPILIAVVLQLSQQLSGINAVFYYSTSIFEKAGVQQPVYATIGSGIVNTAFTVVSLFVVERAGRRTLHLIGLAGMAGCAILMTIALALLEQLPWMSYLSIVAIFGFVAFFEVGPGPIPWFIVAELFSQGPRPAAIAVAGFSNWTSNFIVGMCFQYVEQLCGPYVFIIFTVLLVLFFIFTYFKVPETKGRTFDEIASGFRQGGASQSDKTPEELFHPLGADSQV
Outline: (§4)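 HEK293 cells stably overexpressing human GLUT1 or GLUT2, seeded at 60,000 per well, treated with compounds in glucose-free uptake buffer for 30 min at 37 °C. [3H]-deoxy-D-glucose uptake quantified by scintillation counting after ice-cold PBS washes; IC50 determined.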

[3] = biological target: T3, human GLUT4 (Homo sapiens, UniProt P14672); assay: [3H]-deoxy-D-glucose uptake assay, GLUT4; settings: [3H]-deoxy-D-glucose uptake in HEK293 cells stably expressing human GLUT4
T3 construct: expressed in transfected cells
T3 sequence (P14672 1-509): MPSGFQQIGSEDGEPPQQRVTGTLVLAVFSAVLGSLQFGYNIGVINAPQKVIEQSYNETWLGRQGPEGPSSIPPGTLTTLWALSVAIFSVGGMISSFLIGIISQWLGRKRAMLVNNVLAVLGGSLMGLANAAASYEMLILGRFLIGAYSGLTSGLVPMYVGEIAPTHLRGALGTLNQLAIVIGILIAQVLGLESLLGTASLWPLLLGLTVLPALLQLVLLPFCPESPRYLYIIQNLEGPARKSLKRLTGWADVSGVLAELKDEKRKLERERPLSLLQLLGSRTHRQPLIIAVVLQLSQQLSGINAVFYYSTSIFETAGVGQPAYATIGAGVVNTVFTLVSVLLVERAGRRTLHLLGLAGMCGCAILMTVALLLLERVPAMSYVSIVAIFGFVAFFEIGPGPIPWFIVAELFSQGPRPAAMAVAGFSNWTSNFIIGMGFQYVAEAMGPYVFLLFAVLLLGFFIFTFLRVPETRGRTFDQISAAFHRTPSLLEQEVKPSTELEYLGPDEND
Experimental: as §1, §2, §3

[4] = biological target: T4, human GLUT2 (Homo sapiens, UniProt P11168); assay: [3H]-deoxy-D-glucose uptake assay, GLUT2; settings: [3H]-deoxy-D-glucose uptake in HEK293 cells stably expressing human GLUT2
T4 construct: expressed in transfected cells
T4 sequence (P11168 1-524): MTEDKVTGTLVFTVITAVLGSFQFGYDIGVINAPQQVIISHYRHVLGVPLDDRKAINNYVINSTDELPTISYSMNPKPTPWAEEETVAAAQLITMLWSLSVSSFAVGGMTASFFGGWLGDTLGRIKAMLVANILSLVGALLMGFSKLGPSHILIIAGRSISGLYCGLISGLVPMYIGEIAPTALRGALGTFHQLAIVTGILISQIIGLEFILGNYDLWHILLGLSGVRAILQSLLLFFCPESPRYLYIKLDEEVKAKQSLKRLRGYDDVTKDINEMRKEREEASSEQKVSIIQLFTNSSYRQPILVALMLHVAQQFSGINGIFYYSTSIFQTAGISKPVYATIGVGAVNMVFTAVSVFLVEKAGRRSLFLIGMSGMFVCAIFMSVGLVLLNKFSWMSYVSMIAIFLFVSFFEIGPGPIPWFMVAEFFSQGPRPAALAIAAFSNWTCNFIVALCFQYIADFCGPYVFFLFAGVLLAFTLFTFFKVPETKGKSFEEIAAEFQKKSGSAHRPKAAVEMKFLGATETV
Outline: as §4

SMILES | GLUT3 pIC50 [1] | GLUT1 pIC50 [2] | GLUT4 pIC50 [3] | GLUT2 pIC50 [4]
O=C(c1ccnnc1)N1CCN(Cc2c(-c3ccc(Cl)cc3Cl)nc3cnc(C4CC4)cn23)CC1 [Compound 296] | +++ (pIC50 ≧ 6.00) | +++ (pIC50 ≧ 6.00) | +++ (pIC50 ≧ 6.00) | +++ (pIC50 ≧ 6.00)
O=C(C1CCOCC1)N1CCN(Cc2c(-c3ccc(Cl)cc3Cl)nc3cnc(C4CC4)cn23)CC1 [Compound 297] | +++ (pIC50 ≧ 6.00) | +++ (pIC50 ≧ 6.00) | +++ (pIC50 ≧ 6.00) | +++ (pIC50 ≧ 6.00)
COCC(=O)N1CCN(Cc2c(-c3ccc(Cl)cc3)nc3ccc(N(C)S(C)(=O)=O)cn23)CC1 [Compound 303] | +++ (pIC50 ≧ 6.00) | +++ (pIC50 ≧ 6.00) | +++ (pIC50 ≧ 6.00) | ++ (pIC50 5.00-5.99)
O=C(c1cscn1)N1CCN(Cc2c(-c3ccc(Cl)cc3Cl)nc3cnc(C4CC4)cn23)CC1 [Compound 306] | +++ (pIC50 ≧ 6.00) | +++ (pIC50 ≧ 6.00) | +++ (pIC50 ≧ 6.00) | +++ (pIC50 ≧ 6.00)
CN(c1ccc2nc(-c3ccc(Cl)cc3)c(CN3CCN(C(=O)C4COC4)CC3)n2c1)S(C)(=O)=O [Compound 309] | +++ (pIC50 ≧ 6.00) | +++ (pIC50 ≧ 6.00) | +++ (pIC50 ≧ 6.00) | ++ (pIC50 5.00-5.99)
CN(c1ccc2nc(-c3ccc(Cl)cc3)c(CN3CCN(C(=O)c4ccnnc4)CC3)n2c1)S(C)(=O)=O [Compound 310] | +++ (pIC50 ≧ 6.00) | +++ (pIC50 ≧ 6.00) | +++ (pIC50 ≧ 6.00) | ++ (pIC50 5.00-5.99)
COCC(=O)N1CCN(Cc2c(-c3ccc(Cl)cc3Cl)nc3cnc(C4CC4)cn23)CC1 [Compound 311] | +++ (pIC50 ≧ 6.00) | +++ (pIC50 ≧ 6.00) | +++ (pIC50 ≧ 6.00) | +++ (pIC50 ≧ 6.00)
CC(=O)N1CCN(Cc2c(-c3ccc(Cl)cc3Cl)nc3ccc(NS(C)(=O)=O)cn23)CC1 [Compound 313] | +++ (pIC50 ≧ 6.00) | +++ (pIC50 ≧ 6.00) | +++ (pIC50 ≧ 6.00) | ++ (pIC50 5.00-5.99)
CCS(=O)(=O)Nc1ccc2nc(-c3ccc(Cl)cc3)c(CN3CCN(C(C)=O)CC3)n2c1 [Compound 314] | +++ (pIC50 ≧ 6.00) | +++ (pIC50 ≧ 6.00) | +++ (pIC50 ≧ 6.00) | ++ (pIC50 5.00-5.99)
CCS(=O)(=O)N(C)c1ccc2nc(-c3ccc(Cl)cc3)c(CN3CCN(C(C)=O)CC3)n2c1 [Compound 316] | +++ (pIC50 ≧ 6.00) | +++ (pIC50 ≧ 6.00) | +++ (pIC50 ≧ 6.00) | ++ (pIC50 5.00-5.99)
O=C(CO)N1CCN(Cc2c(-c3ccc(Cl)cc3Cl)nc3cnc(C4CC4)cn23)CC1 [Compound 321] | +++ (pIC50 ≧ 6.00) | +++ (pIC50 ≧ 6.00) | +++ (pIC50 ≧ 6.00) | +++ (pIC50 ≧ 6.00)
CC(C)(O)C(=O)N1CCN(Cc2c(-c3ccc(Cl)cc3Cl)nc3cnc(C4CC4)cn23)CC1 [Compound 322] | +++ (pIC50 ≧ 6.00) | +++ (pIC50 ≧ 6.00) | +++ (pIC50 ≧ 6.00) | +++ (pIC50 ≧ 6.00)
CC(=O)N1CCN(Cc2c(-c3ccc(Cl)cc3)nc3ccc(N4CCCCS4(=O)=O)cn23)CC1 [Compound 326] | +++ (pIC50 ≧ 6.00) | +++ (pIC50 ≧ 6.00) | +++ (pIC50 ≧ 6.00) | +++ (pIC50 ≧ 6.00)
CC(=O)N1CCN(Cc2c(-c3ccc(Cl)cc3Cl)nc3ccc(N(C)S(C)(=O)=O)cn23)CC1 [Compound 333] | +++ (pIC50 ≧ 6.00) | +++ (pIC50 ≧ 6.00) | +++ (pIC50 ≧ 6.00) | +++ (pIC50 ≧ 6.00)
